Data on ten compounds can be found in ChEMBL document CHEMBL1201862, “PubChem BioAssay data set” (2004).

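Where inhibition never reached the appropriate level, the endpoint shown equals the highest concentration tested. Otherwise, values were interpolated linearly from a five-concentration, 48-hour dose response in 96-well plates. At the GI50, growth is halved.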 Active and inactive are the calls of the source. Cut-off read from the data, not from the text of the source: active = GI50 up to about 1.1 µM and inactive = higher.

Some test systems named below: A498; A549; CAKI-1; CCRF-CEM; EKVX; HCC 2998; HCT-116; HL-60; IGROV-1; K562; KM12; MDA-MB-231; MOLT-4; NCI-H23; OVCAR-5; PC-3; SF-268; SF-295; SK-MEL-5; SNB-75.
Holding throughout (assay): inhibition of tumour cell growth, NCI panel, 48 h

On to `COc1ccc(/C=c2\s/c(=C3/SC(=S)N(c4ccccc4)C3=O)n(-c3ccccc3)c2=O)cc1`, for which the GI50 in the test on A498 was 36.6 µM (inactive); in the test on A549, > 100 µM (inactive); in the test on CAKI-1, 32.9 µM (inactive); in the test with CCRF-CEM, 24 µM (inactive); with EKVX it was > 100 µM (inactive); in the test with HCC 2998 it was > 100 µM (inactive). The GI50 in the test with HCT-116 is > 100 µM (inactive); in the test with HL-60, > 100 µM (inactive); in the test with IGROV-1, 19.7 µM (inactive); in the test with K562, > 100 µM (inactive); with KM12, > 100 µM (inactive); in the test on MDA-MB-231, 49.3 µM (inactive). In addition, the GI50 in the test with MOLT-4 is 29.8 µM (inactive); with NCI-H23, 26.9 µM (inactive); in the test with OVCAR-5, > 100 µM (inactive); with PC-3 it was > 100 µM (inactive); with SF-268, 0.895 µM (active); in the test with SF-295 it was 35 µM (inactive). For the same compound, the GI50 is > 100 µM (inactive) in the test on SK-MEL-5 and 4.61 µM (inactive) with SNB-75.
`C[C@]12CC[C@H]3[C@@H](CCC4=CC(=O)CC[C@@]43C)[C@]1(O)CC[C@]2(O)C(=O)CO`: the GI50 in the test with A498, with A549, in the test on CAKI-1, in the test on CCRF-CEM, in the test with EKVX and in the test on HCC 2998 was > 100 µM (inactive) throughout. In addition, the GI50 in the test with HCT-116, in the test on HL-60, in the test on IGROV-1, with K562, in the test with KM12 and in the test with MDA-MB-231 was > 100 µM (inactive) throughout. In addition, the GI50 with MOLT-4, in the test with NCI-H23, in the test with OVCAR-5, in the test on PC-3, in the test with SF-268 and in the test with SF-295 was > 100 µM (inactive) throughout. The GI50 in the test with SK-MEL-5 and in the test on SNB-75 was > 100 µM (inactive) throughout.
With `FC(F)(F)c1ccc2c(c1)nc(Cc1ccccc1)n2C[C@@H]1CCCN2CCCCC12` (stereo not given in full), the GI50 was 15.5 µM (inactive) in the test with A498; 15 µM (inactive) with A549; 15.1 µM (inactive) in the test with CAKI-1; 17.1 µM (inactive) with CCRF-CEM; 8.47 µM (inactive) in the test on EKVX; 4.68 µM (inactive) with HCC 2998. Further, the GI50 was 14.1 µM (inactive) in the test on HCT-116; 1.59 µM (inactive) in the test with HL-60; 12.9 µM (inactive) in the test on IGROV-1; 18.9 µM (inactive) with K562; 15.8 µM (inactive) in the test on KM12; 14.2 µM (inactive) in the test with MDA-MB-231. The GI50 in the test with MOLT-4 was 12.9 µM (inactive); in the test on NCI-H23, 14.6 µM (inactive); with OVCAR-5 it was 16.1 µM (inactive); in the test with PC-3 it was 14.3 µM (inactive); with SF-268 it was 14.8 µM (inactive); in the test with SF-295, 15.8 µM (inactive). The GI50 in the test with SK-MEL-5 was 14.4 µM (inactive); in the test with SNB-75, 15.1 µM (inactive).
Turning to `O=C(Nc1ccccc1)N(CCCCN(Cc1ccccc1)C(=O)Nc1ccccc1)Cc1ccccc1`, the GI50 with A498 was > 100 µM (inactive); in the test with A549, 28.8 µM (inactive); in the test on CAKI-1 it was > 100 µM (inactive); in the test on CCRF-CEM it was > 100 µM (inactive); with EKVX it was 72.3 µM (inactive); in the test on HCC 2998, > 100 µM (inactive). Besides, the GI50 in the test on HCT-116 was 30.1 µM (inactive); in the test with HL-60, > 100 µM (inactive); in the test with IGROV-1, > 100 µM (inactive); in the test on K562, 30.8 µM (inactive); in the test on KM12, > 100 µM (inactive); in the test on MDA-MB-231, 48.6 µM (inactive). Besides, the GI50 in the test with MOLT-4 was 52.7 µM (inactive); in the test with NCI-H23, > 100 µM (inactive); in the test with OVCAR-5, > 100 µM (inactive); with PC-3 it was > 100 µM (inactive); in the test on SF-268, > 100 µM (inactive); in the test with SF-295, > 100 µM (inactive). Further, the GI50 in the test with SK-MEL-5 was > 100 µM (inactive); in the test with SNB-75, 27.7 µM (inactive).
With `Oc1nnnc2c1sc1ncccc12`, the GI50 in the test on A498 is 39.8 µM (inactive); in the test on A549 it was > 100 µM (inactive); in the test with CAKI-1, > 100 µM (inactive); with CCRF-CEM, > 100 µM (inactive); in the test on EKVX it was 63.1 µM (inactive); in the test with HCC 2998, > 100 µM (inactive). The GI50 is > 100 µM (inactive) in the test on HCT-116; > 100 µM (inactive) in the test with HL-60; > 100 µM (inactive) with IGROV-1; > 100 µM (inactive) in the test on K562; > 100 µM (inactive) with KM12; 68.2 µM (inactive) in the test on MDA-MB-231. Also, the GI50 in the test on MOLT-4, in the test on NCI-H23, in the test on OVCAR-5, in the test on PC-3, with SF-268 and in the test on SF-295 was > 100 µM (inactive) in each case. Besides, the GI50 in the test on SK-MEL-5 was > 100 µM (inactive); in the test with SNB-75, 25.1 µM (inactive).
`Cc1c(Cc2ccccc2)c(Cc2ccccc2)c(C)[s+]1[O-]`: the GI50 in the test with A498 was 24.5 µM (inactive); in the test with A549, 30.2 µM (inactive); in the test on CAKI-1 it was 22.7 µM (inactive); with CCRF-CEM it was 19.1 µM (inactive); in the test with EKVX, 18.4 µM (inactive); in the test on HCC 2998 it was 19.6 µM (inactive). Also, the GI50 was 24.1 µM (inactive) with HCT-116; 12.5 µM (inactive) in the test with HL-60; 36.8 µM (inactive) in the test with IGROV-1; 21.2 µM (inactive) in the test on K562; 17.3 µM (inactive) with KM12; 19.2 µM (inactive) with MDA-MB-231. Besides, the GI50 is 14.7 µM (inactive) with MOLT-4; 28.3 µM (inactive) in the test with NCI-H23; 20.1 µM (inactive) with OVCAR-5; 18.8 µM (inactive) with PC-3; 51.1 µM (inactive) in the test with SF-268; 30.1 µM (inactive) in the test on SF-295. For the same compound, the GI50 in the test with SK-MEL-5 was 15.6 µM (inactive); in the test on SNB-75 it was 20 µM (inactive).
For the compound `C/C=C(\C)C(=O)OC1/C=C(\C)CC/C=C(\C)CC2OC(=O)C(C)(OC(C)=O)C12` (stereo not given), the GI50 in the test on A498, in the test with A549, in the test on CAKI-1, in the test with CCRF-CEM, in the test on EKVX and in the test with HCC 2998 was > 100 µM (inactive) in each case. In addition, the GI50 with HCT-116 was > 100 µM (inactive); in the test with HL-60, 59.7 µM (inactive); in the test on IGROV-1, > 100 µM (inactive); in the test with K562, > 100 µM (inactive); with KM12 it was > 100 µM (inactive); in the test with MDA-MB-231, > 100 µM (inactive). The GI50 in the test with MOLT-4, in the test on NCI-H23, with OVCAR-5, with PC-3, in the test on SF-268 and in the test on SF-295 was > 100 µM (inactive) in each case. Moreover, the GI50 in the test on SK-MEL-5 and in the test on SNB-75 was > 100 µM (inactive) each time.
For the compound `Cc1cn(C2CC(N=[N+]=[N-])C(CO[Si](C)(C)C(C)(C)C)O2)c(=O)[nH]c1=O` (stereo not given), the GI50 is 16.1 µM (inactive) in the test on A498; 27.2 µM (inactive) in the test on A549; 16.4 µM (inactive) in the test on CAKI-1; 24.5 µM (inactive) in the test with CCRF-CEM; 23.5 µM (inactive) with EKVX; 12.6 µM (inactive) in the test on HCC 2998. Moreover, the GI50 in the test with HCT-116 was 16.1 µM (inactive); in the test on HL-60, 28.7 µM (inactive); in the test on IGROV-1, 18.7 µM (inactive); with K562, 20.8 µM (inactive); in the test with KM12 it was 15.8 µM (inactive); in the test with MDA-MB-231 it was 13.6 µM (inactive). Besides, the GI50 in the test on MOLT-4 was 26.7 µM (inactive); in the test with NCI-H23, 21.1 µM (inactive); in the test with OVCAR-5, 23 µM (inactive); with PC-3, 15.7 µM (inactive); in the test on SF-268, 19.5 µM (inactive); in the test with SF-295, 17.3 µM (inactive). Besides, the results for the GI50 in the test on SK-MEL-5 and in the test on SNB-75 were 18.5 µM (inactive) and 19.3 µM (inactive), respectively.
For `CC1=NN(c2nc(N)nc(CSc3cc(Cl)c(C)cc3S(N)(=O)=O)n2)C(C)(C)C1`, the GI50 in the test with A498, in the test on A549, in the test with CAKI-1, with CCRF-CEM, in the test on EKVX and in the test with HCC 2998 was > 10 µM (inactive) throughout. The GI50 with HCT-116, with HL-60, in the test with IGROV-1, in the test with K562, with KM12 and in the test on MDA-MB-231 was > 10 µM (inactive) throughout. In addition, the GI50 in the test on MOLT-4, in the test with NCI-H23, with OVCAR-5, with PC-3, with SF-268 and in the test on SF-295 was > 10 µM (inactive) throughout. Further, the GI50 in the test with SK-MEL-5 and in the test on SNB-75 was > 10 µM (inactive) each time.
As for `C[C@]12C=CC(=O)C=C1CC[C@@H]1[C@@H]2CC[C@]2(C)OC(=O)CC[C@@H]12` [TESTOLACTONE], the GI50 is 347 µM (inactive) in the test on A498; 447 µM (inactive) in the test on A549; 372 µM (inactive) in the test on CAKI-1; 431 µM (inactive) in the test on CCRF-CEM; 318 µM (inactive) with EKVX; 372 µM (inactive) with HCC 2998. In addition, the GI50 is > 466 µM (inactive) in the test with HCT-116; 310 µM (inactive) with HL-60; 453 µM (inactive) in the test with IGROV-1; 449 µM (inactive) in the test on K562; > 500 µM (inactive) in the test on KM12; 327 µM (inactive) with MDA-MB-231. Further, the GI50 with MOLT-4 was 375 µM (inactive); in the test with NCI-H23 it was > 491 µM (inactive); in the test with OVCAR-5, > 489 µM (inactive); in the test with PC-3 it was > 500 µM (inactive); in the test with SF-268 it was > 489 µM (inactive); in the test on SF-295 it was > 500 µM (inactive). The GI50 is 429 µM (inactive) in the test on SK-MEL-5 and 292 µM (inactive) in the test with SNB-75.
